In patent publication US7109380B2, “Cyclopentenedione antifungal compounds and methods for their use” (The University of Mississippi, priority 2004, dated 2006):
Values after ≈ are worked out from the molar mass of the structure shown. Read-outs that look alike come from different tables or passages of the source.

What was measured:
Assay type in all cases: cell-based
[1] = test system: Germinating Conidia of Fusarium oxysporum; assay: Lethality bioassay on germinating conidia; settings: for viability at 5 µM / viability at 10 µM / viability at 15 µM / viability at 20 µM / viability at 25 µM / viability at 30 µM: read-out: Percent of Control Mean (viable colonies, Fusarium oxysporum)
Method: (§1) Pathogen production. Stock slant isolates of Aspergillus flavus, Fusarium oxysporum, and Fusarium moniliforme were grown on potato dextrose agar (Difco, Detroit, Mich.) slants for 7 days at room temperature (22° C.).
(§2) Inoculum preparation. Prior to a bioassay, 4 ml of 1% potato dextrose broth (PDB, Difco, Detroit, Mich.), pH 4.86, was added to a stock culture slant. The conidia were suspended by gentle agitation using the pipette tip and the population determined with the use of a hemocytometer. The conidia were then diluted to a 10^4 conidia/ml concentration and incubated for 8 hrs at 22° C. to obtain germinating conidia that were used in the bioassays.
(§3) Experimental design of lethality bioassays to determine activity of coruscanone A. Coruscanone A was diluted in 100% methanol with a further dilution in PDB to achieve a stock concentration of 0.032 μg/μl. Test mixtures of germinating conidia and compound 67 were made in sterile 500 μl Eppendorf (Brinkman, Westbury, N.Y.) microcentrifuge tubes. Final test concentrations of compound 67 were 0, 5, 10, 15, 20, 25, and 30 μM in a final volume of 250 μl (0.0635 μg/μl=1.0 μM/250 μl). After an incubation of 30 min, 16 hours and 24 hours at 22° C., aliquots (50 μl) of the each sample were spread on each of 4 PDA plates. The plates were incubated at 22° C. for 2 days and the developed, viable colonies were enumerated. Separate bioassays were also set up at the same time as that with the 30 min incubation period but incubated at 22° C. for 16 and 24 hours, respectively. These samples were spread as previously described and the developing, viable colonies enumerated. Bioassays were performed on three separate occasions per fungus (n=12). Statistical analysis was performed using SigmaPlot 9.0 (p<0.05).

[2] = test system: Germinating conidia of Aspergillus flavus; assay: Lethality bioassay on germinating conidia; settings: for viability at 5 µM / viability at 10 µM / viability at 15 µM / viability at 20 µM / viability at 25 µM / viability at 30 µM: read-out: Percent of Control Mean (viable colonies, Aspergillus flavus)
Method: as §1, §2, §3

[3] = test system: Germinating Conidia of Fusarium moniliforme; assay: Lethality bioassay on germinating conidia; settings: for viability at 5 µM / viability at 10 µM / viability at 15 µM / viability at 20 µM / viability at 25 µM / viability at 30 µM: Fusarium verticillioides, read-out: Percent of Control Mean (viable colonies, Fusarium moniliforme)
Method: as §1, §2, §3

[4] = test system: M. intracellulare ATCC 23068; assay: In vitro antibacterial assay (modified method of Franzblau, Alamar Blue); settings: Mycobacterium intracellulare

COC(/C=C/c1ccccc1)=C1\C(=O)C=C(C)C1=O [Compound 1, coruscanone A]
viability at 5 µM ([1]; 0.5 h): 110% | viability at 10 µM ([1]; 0.5 h): 102% | viability at 15 µM ([1]; 0.5 h): 110% | viability at 20 µM ([1]; 0.5 h): 106% | viability at 25 µM ([1]; 0.5 h): 116% | viability at 30 µM ([1]; 0.5 h): 113% | viability at 5 µM ([1]; 16 h): 104% | viability at 10 µM ([1]; 16 h): 79.7% | viability at 15 µM ([1]; 16 h): 41.2% | viability at 20 µM ([1]; 16 h): 30.8% | viability at 25 µM ([1]; 16 h): 14.5% | viability at 30 µM ([1]; 16 h): 7.7% | Concentration at which significant and increasing lethality begins ([1]; 16 hour incubation): ≥ 15 µM | viability at 5 µM ([1]; 24 h): 80.2% | viability at 10 µM ([1]; 24 h): 56.7% | viability at 15 µM ([1]; 24 h): 35.2% | viability at 20 µM ([1]; 24 h): 19.4% | viability at 25 µM ([1]; 24 h): 10.9% | viability at 30 µM ([1]; 24 h): 4.3% | Concentration at and above which significantly and increasingly lethal ([1]; 24 hour incubation): ≥ 10 µM | Lethality to germinating conidia (in words) ([1]; any of the tested concentrations (time not given)): not lethal | viability at 5 µM ([2]; 0.5 h): 109% | viability at 10 µM ([2]; 0.5 h): 86.6% | viability at 15 µM ([2]; 0.5 h): 98% | viability at 20 µM ([2]; 0.5 h): 78.9% | viability at 25 µM ([2]; 0.5 h): 70% | viability at 30 µM ([2]; 0.5 h): 66.5% | viability at 5 µM ([2]; 16 h): 75.2% | viability at 10 µM ([2]; 16 h): 76.4% | viability at 15 µM ([2]; 16 h): 45.4% | viability at 20 µM ([2]; 16 h): 39.1% | viability at 25 µM ([2]; 16 h): 30.5% | viability at 30 µM ([2]; 16 h): 19.5% | viability at 5 µM ([2]; 24 h): 113% | viability at 10 µM ([2]; 24 h): 71.8% | viability at 15 µM ([2]; 24 h): 64.8% | viability at 20 µM ([2]; 24 h): 55.7% | viability at 25 µM ([2]; 24 h): 40.6% | viability at 30 µM ([2]; 24 h): 28.7% | Lethality to germinating conidia (in words) ([2]; after 24 hours of incubation, any tested concentration): no longer significantly lethal | Lethality to germinating conidia (in words) ([2]; incubated 30 min): not lethal | Concentration at and above which significant and increasing lethality was observed ([3]; Fusarium moniliforme, 16 and 24 hours of incubation): ≥ 5 µM | Lethality to germinating conidia (in words) ([3]; Fusarium moniliforme, 30 min incubation): not significantly lethal | viability at 5 µM ([3]; 0.5 h): 106% | viability at 10 µM ([3]; 0.5 h): 85.4% | viability at 15 µM ([3]; 0.5 h): 114% | viability at 20 µM ([3]; 0.5 h): 102% | viability at 25 µM ([3]; 0.5 h): 99.7% | viability at 30 µM ([3]; 0.5 h): 90.8% | viability at 5 µM ([3]; 16 h): 12.5% | viability at 10 µM ([3]; 16 h): 6.1% | viability at 15 µM ([3]; 16 h): 5.3% | viability at 20 µM ([3]; 16 h): 2.7% | viability at 25 µM ([3]; 16 h): 2.1% | viability at 30 µM ([3]; 16 h): 1.6% | viability at 5 µM ([3]; 24 h): 38.6% | viability at 10 µM ([3]; 24 h): 7.4% | viability at 15 µM ([3]; 24 h): 4.2% | viability at 20 µM ([3]; 24 h): 3.9% | viability at 25 µM ([3]; 24 h): 2.2% | viability at 30 µM ([3]; 24 h): 1.3% | IC50 ([4]; ATCC23068, read-out: IC50 (50% inhibitory concentration)): 1.5 µg/mL (≈ 5.9 µM) | MIC ([4]; ATCC23068, M. intracellulare ATCC 23068): 2.5 µg/mL (≈ 9.83 µM) | MBC ([4]; ATCC23068, M. intracellulare ATCC 23068, read-out: MBC (Minimum Bactericidal Concentration)): 5 µg/mL (≈ 19.7 µM)
